Measured values published in patent publication US20260256796A1, “METHOD FOR TREATING FELINE CORONAVIRUS OR CALICIVIRUS INFECTION” (VIGONVITA LIFE SCIENCES CO., LTD., priority 2022, published 2026).

Key:
[1] = tested on: feline infectious peritonitis virus (FIPV); test: Inhibitory activity against feline coronavirus (FIPV) in CRFK cells, CellTiter-Glo readout; assay type: cell-based; settings: for EC50: Alphacoronavirus 1, FIPV 0.1 MOI/well, 72 h, CellTiter-Glo; for inhibition of replication of FIPV in vitro: summary of Table 1
Method: CRFK cells in a good growth state were seeded into a 96-well assay plate. When the cells grew to 80%-90% confluence, feline coronavirus (FIPV) (0.1 MOI/well) and varying concentrations of the test compounds were added to the assay plate. Meanwhile, a cell control (cells, no compound treatment or viral infection) and a virus control (cells infected with virus, no compound treatment) were set. The final concentration of DMSO in the culture solution was 1%. After incubation at 37° C. for 72 h, the cells were treated with a CellTiter-Glo luminescent cell viability assay reagent (Promega, Madison, WI, USA). The half-maximal effective concentration (EC50) values of the compounds for virus inhibition were calculated using the GraphPad prism 7 software.

[2] = Pharmacokinetic evaluation in rats; assay type: in vivo; settings: male, SD; for AUC(0-inf) / AUC(0-t) / Cmax: nucleoside (compound 4) in rat plasma
Method: Male SD rats were fasted before the experiment (except for the intravenous group, which was not fasted), with free access to water, and were fed uniformly 2 h after administration. Compound 4 was administered by intravenous injection at a dose of 2.0 mg/kg (n=3) and administered intragastrically at a dose of 10.0 mg/kg (n=3); compound 53 was administered by intravenous injection at a dose of 5.0 mg/kg (n=3) and administered intragastrically at a dose of 20.0 mg/kg (n=3); the administration vehicle was 5% DMSO+5% ethanol+40% PEG300+50% saline. After the administration, 0.2-mL blood samples were collected via the jugular vein at different time points. Each blood sample was then placed into a heparin sodium anticoagulation tube, gently mixed uniformly, and centrifuged at 2000 g for 10 min. Plasma was isolated and frozen in a refrigerator at −70° C. for later analysis. The concentration of nucleoside (compound 4) in the plasma was determined by the LC-MS-MS method, and pharmacokinetic parameters were calculated.

Compound	EC50 [1]	inhibition of replication of FIPV in vitro [1]	other results
[2H]c1cc([C@]2(C#N)O[C@H](COC(C)=O)[C@@H](OC(C)=O)[C@H]2OC(C)=O)n2ncnc(N)c12 [Compound 40]	1.05 µM	–	–
CC(C)C(=O)O[C@H]1[C@@H](O)[C@](C#N)(c2ccc3c(N)ncnn23)O[C@@H]1CO [Compound 20]	0.69 µM	could inhibit the replication	–
[2H]c1cc([C@]2(C#N)O[C@H](COC(C)=O)[C@@H](O)[C@H]2O)n2ncnc(N)c12 [Compound 52]	1.3 µM	–	–
[2H]c1cc([C@]2(C#N)O[C@H](COC(=O)C(CC)CC)[C@@H](O)[C@H]2O)n2ncnc(N)c12 [Compound 32]	43.8 µM	–	–
[2H]c1cc([C@]2(C#N)O[C@H](COC(=O)C(C)C)[C@@H](O)[C@H]2O)n2ncnc(N)c12 [Compound 11]	0.69 µM	could inhibit the replication	–
[2H]c1cc([C@]2(C#N)O[C@H](COC(=O)C(C)C)[C@@H](OC(=O)C(C)C)[C@H]2OC(=O)C(C)C)n2ncnc(N)c12 [Compound 42]	1.63 µM	–	–
N#C[C@@]1(c2ccc3c(N)ncnn23)O[C@H](CO)[C@@H](O)[C@H]1O [GS-441524, reference compound]	2.29 µM	–	–
[2H]c1cc([C@]2(C#N)O[C@H](COC(=O)C(C)C)[C@H]3OC(=O)O[C@H]32)n2ncnc(N)c12 [Compound 53]	0.66 µM	could inhibit the replication	–
[2H]c1cc([C@]2(C#N)O[C@H](CO)[C@@H](O)[C@H]2O)n2ncnc(N)c12 [Compound 4]	2.34 µM	–	bioavailability ([2]; plasma, rat, nucleoside (compound 4) measured, po 10.0 mg/kg vs iv 2.0 mg/kg, read-out: F (oral bioavailability)): 21.7%; AUC(0-inf) ([2]; iv 2.0 mg/kg): 1.79 µg·h/mL; AUC(0-t) ([2]; iv 2.0 mg/kg): 1.72 µg·h/mL; Cmax ([2]; iv 2.0 mg/kg): 1.63 µg/mL; AUC(0-inf) ([2]; po 10.0 mg/kg): 1.91 µg·h/mL; AUC(0-t) ([2]; po 10.0 mg/kg): 1.87 µg·h/mL; Cmax ([2]; po 10.0 mg/kg): 0.246 µg/mL
N#C[C@@]1(c2ccc3c(N)ncnn23)O[C@H](CO)[C@H]2OC(=O)O[C@H]21 [Compound 25]	2.75 µM	–	–
CC(C)C(=O)OC[C@H]1O[C@@](C#N)(c2ccc3c(N)ncnn23)[C@H](O)[C@@H]1O [Compound 6]	0.65 µM	could inhibit the replication	–
[2H]c1cc([C@]2(C#N)O[C@H](COC(=O)CC)[C@@H](O)[C@H]2O)n2ncnc(N)c12 [Compound 29]	1.1 µM	–	–
CC(C)C(=O)OC[C@H]1O[C@@](C#N)(c2ccc3c(N)ncnn23)[C@H](OC(=O)C(C)C)[C@@H]1OC(=O)C(C)C [Compound 27]	1.59 µM	–	–
